Measurements taken from patent US10563263B2, “Genetic polymorphisms associated with statin response and cardiovascular diseases, methods of detection and uses thereof” (CELERA CORPORATION, priority 2010, dated 2020).

System: CVD (CHD or stroke)
Experiment: CARE: SNP by pravastatin treatment interaction, logistic regression (synergy index), CVD endpoint
Type: in vivo, human
Settings: for OR (SNP x pravastatin interaction) / OR (synergy index, SNP x pravastatin treatment interaction): CARE; for OR (synergy index), CARE, Prava vs Placebo: CVD endpoint
From the text: CARE was a secondary prevention trial and WOSCOPS was a primary prevention trial.
The CHD endpoint was defined in the analyses herein of CARE as a composite endpoint of fatal CHD, definite non-fatal MI, or revascularization, and was defined in the analyses herein of WOSCOPS as a composite endpoint of death from CHD, nonfatal MI, or revascularization. In both the CARE and WOSCOPS analyses herein, the CVD endpoint was defined as a composite endpoint of CHD or stroke. […] Revascularization, which can include percutaneous transluminal coronary angioplasty (PTCA), stent placement, and coronary artery bypass graft (CABG), are medical interventions that indicate the presence of CHD.
Cohort and case-only study designs were used to identify SNPs associated with response to statin treatment.
For each SNP, a logistic regression model having treatment status as the dependent variable and SNP as the independent predictor variable was performed, with terms for age, sex and race included in the model as covariates. The anti-log of the regression coefficient corresponding to the SNP is an estimate of the synergy index (SI) (Davis et al., “Imputing gene-treatment interactions when the genotype distribution is unknown using case-only and putative placebo analyses-a new method for the Genetics of Hypertension Associated Treatment (GenHAT) study”, Statistics in Medicine 23: (2004), pages 2413-2427). The SI is a ratio of odds ratios: for example in the CARE and WOSCOPS studies, the SI represents the factor by which the odds-ratio of statin treatment, compared with placebo, among major homozygous individuals is multiplied by in order to obtain the odds-ratio of treatment vs. placebo among heterozygous individuals; and multiplied by a second time to obtain the odds-ratio of treatment vs. placebo in minor homozygous individuals. […] In a randomized clinical trial, genotype and treatment are independent by design.

In the case of `CC[C@H](C)C(=O)O[C@H]1C[C@H](O)C=C2C=C[C@H](C)[C@H](CC[C@@H](O)C[C@@H](O)CC(=O)O)[C@H]21` [Pravastatin, pravastatin], the “OR (SNP x pravastatin interaction)” value (rs2132242 allele A, ADD model, Imputed) is reported as 0.7317, the “OR (SNP x pravastatin interaction)” value (rs2132242 allele A, DOM model, Imputed) is reported as 0.6043 and the “OR (SNP x pravastatin interaction)” value (rs2158958 allele A, DOM model, Imputed) is reported as 0.6617. The “OR (SNP x pravastatin interaction)” value (rs2158961 allele G, DOM model, Imputed) was 0.6544, the “OR (SNP x pravastatin interaction)” value (rs2163046 allele A, DOM model, Imputed) was 1.474 and the “OR (SNP x pravastatin interaction)” value (rs2180286 allele G, DOM model, Imputed) was 0.6211. For the same compound, the “OR (SNP x pravastatin interaction)” value (rs2180684 allele A, DOM model, Imputed) was 1.684, the “OR (SNP x pravastatin interaction)” value (rs2188079 allele C, ADD model, Imputed) was 1.333 and the “OR (SNP x pravastatin interaction)” value (rs2190598 allele T, DOM model, Imputed) was 0.6617. For the same compound, the “OR (SNP x pravastatin interaction)” value (rs2190600 allele A, DOM model, Imputed) was 0.6716, the “OR (SNP x pravastatin interaction)” value (rs2224184 allele T, DOM model, Genotyped) was 0.6357 and the “OR (SNP x pravastatin interaction)” value (rs2247066 allele A, DOM model, Imputed) was 0.6151. The “OR (SNP x pravastatin interaction)” value (rs2248236 allele C, ADD model, Imputed) was 0.6377, the “OR (SNP x pravastatin interaction)” value (rs2248236 allele C, DOM model, Imputed) was 0.6049 and the “OR (SNP x pravastatin interaction)” value (rs2265733 allele C, ADD model, Imputed) was 0.6269. The “OR (SNP x pravastatin interaction)” value (rs2265733 allele C, DOM model, Imputed) was 0.5989, the “OR (SNP x pravastatin interaction)” value (rs2270584 allele A, ADD model, Imputed) was 0.7437 and the “OR (SNP x pravastatin interaction)” value (rs2270584 allele A, DOM model, Imputed) was 0.5859. For the same compound, the “OR (SNP x pravastatin interaction)” value (rs2270586 allele A, ADD model, Imputed) was 0.7444, the “OR (SNP x pravastatin interaction)” value (rs2270586 allele A, DOM model, Imputed) was 0.5879 and the “OR (SNP x pravastatin interaction)” value (rs2317057 allele T, ADD model, Imputed) was 0.7125. The “OR (SNP x pravastatin interaction)” value (rs2322100 allele T, REC model, Genotyped) was 1.768, the “OR (SNP x pravastatin interaction)” value (rs2322101 allele A, REC model, Imputed) was 1.764 and the “OR (SNP x pravastatin interaction)” value (rs2327929 allele G, REC model, Imputed) was 1.996. For the same compound, the “OR (SNP x pravastatin interaction)” value (rs2332844 allele A, ADD model, Imputed) was 1.802, the “OR (SNP x pravastatin interaction)” value (rs2332844 allele A, REC model, Imputed) was 1.849 and the “OR (SNP x pravastatin interaction)” value (rs2349170 allele G, DOM model, Imputed) was 1.638. For the same compound, the “OR (SNP x pravastatin interaction)” value (rs2356722 allele G, DOM model, Imputed) was 0.5863, the “OR (SNP x pravastatin interaction)” value (rs2364956 allele T, ADD model, Imputed) was 1.439 and the “OR (SNP x pravastatin interaction)” value (rs2373793 allele G, ADD model, Imputed) was 1.379. For the same compound, the “OR (SNP x pravastatin interaction)” value (rs2373793 allele G, DOM model, Imputed) was 1.446, the “OR (SNP x pravastatin interaction)” value (rs2383903 allele G, DOM model, Imputed) was 0.6249 and the “OR (SNP x pravastatin interaction)” value (rs2387945 allele G, DOM model, Imputed) was 1.587. For the same compound, the “OR (SNP x pravastatin interaction)” value (rs2389863 allele A, DOM model, Imputed) was 0.6722, the “OR (SNP x pravastatin interaction)” value (rs2389866 allele C, DOM model, Imputed) was 0.6634 and the “OR (SNP x pravastatin interaction)” value (rs2389869 allele C, DOM model, Imputed) was 0.6634. The “OR (SNP x pravastatin interaction)” value (rs2389870 allele C, DOM model, Genotyped) was 0.6413, the “OR (synergy index, SNP x pravastatin treatment interaction)” value (rs16938626 allele G, model DOM, Imputed) was 0.612 and the “OR (synergy index, SNP x pravastatin treatment interaction)” value (rs16964300 allele G, model ADD, Imputed) was 0.6771. For the same compound, the “OR (synergy index, SNP x pravastatin treatment interaction)” value (rs16964300 allele G, model DOM, Imputed) was 0.7073, the “OR (synergy index, SNP x pravastatin treatment interaction)” value (rs16986282 allele G, model DOM, Imputed) was 0.3124 and the “OR (synergy index, SNP x pravastatin treatment interaction)” value (rs17007620 allele G, model ADD, Imputed) was 1.421. For the same compound, the “OR (synergy index, SNP x pravastatin treatment interaction)” value (rs17007620 allele G, model DOM, Imputed) was 1.572, the “OR (synergy index, SNP x pravastatin treatment interaction)” value (rs17014326 allele G, model DOM, Imputed) was 0.5837 and the “OR (synergy index, SNP x pravastatin treatment interaction)” value (rs17047957 allele C, model DOM, Imputed) was 1.47. For the same compound, the “OR (synergy index, SNP x pravastatin treatment interaction)” value (rs17073341 allele A, model ADD, Imputed) was 2.568, the “OR (synergy index, SNP x pravastatin treatment interaction)” value (rs17073341 allele A, model DOM, Imputed) was 2.569 and the “OR (synergy index, SNP x pravastatin treatment interaction)” value (rs17138702 allele G, model ADD, Imputed) was 0.5527. The “OR (synergy index, SNP x pravastatin treatment interaction)” value (rs17189710 allele T, model ADD, Imputed) was 1.359, the “OR (synergy index, SNP x pravastatin treatment interaction)” value (rs17189710 allele T, model REC, Imputed) was 1.896 and the “OR (synergy index, SNP x pravastatin treatment interaction)” value (rs17310176 allele T, model ADD, Imputed) was 0.6381. For the same compound, the “OR (synergy index, SNP x pravastatin treatment interaction)” value (rs17310176 allele T, model DOM, Imputed) was 0.5794, the “OR (synergy index, SNP x pravastatin treatment interaction)” value (rs17358860 allele A, model DOM, Imputed) was 0.6291 and the “OR (synergy index, SNP x pravastatin treatment interaction)” value (rs17370541 allele T, model REC, Imputed) was 2.075. The “OR (synergy index, SNP x pravastatin treatment interaction)” value (rs17530747 allele T, model DOM, Imputed) was 0.5794, the “OR (synergy index, SNP x pravastatin treatment interaction)” value (rs17649114 allele C, model DOM, Imputed) was 1.543 and the “OR (synergy index, SNP x pravastatin treatment interaction)” value (rs17766172 allele A, model REC, Imputed) was 0.3869. The “OR (synergy index), CARE, Prava vs Placebo” value (from here on “OR (synergy index), CARE”) (SNP rs304597 (A1 A, A2 G), rec model, cohort) was 1.95, the “OR (synergy index), CARE” value (SNP rs304601 (A1 A, A2 G), rec model, Caseonly) was 2.28 and the “OR (synergy index), CARE” value (SNP rs988146 (A1 G, A2 A), add model, Caseonly) was 0.66. The “OR (synergy index), CARE” value (SNP rs1336400 (A1 A, A2 G), dom model, cohort) was 1.68, the “OR (synergy index), CARE” value (SNP rs1559557 (A1 G, A2 A), add model, Caseonly) was 1.34 and the “OR (synergy index), CARE” value (SNP rs1877527 (A1 G, A2 A), add model, Caseonly) was 0.75. For the same compound, the “OR (synergy index), CARE” value (SNP rs2132241 (A1 A, A2 G), add model, Caseonly) was 0.74, the “OR (synergy index), CARE” value (SNP rs2270588 (A1 G, A2 A), add model, Caseonly) was 0.72 and the “OR (synergy index), CARE” value (SNP rs3844207 (A1 G, A2 C), add model, cohort) was 0.73. For the same compound, the “OR (synergy index), CARE” value (SNP rs7132840 (A1 T, A2 G), add model, cohort) was 0.75, the “OR (synergy index), CARE” value (SNP rs9325191 (A1 A, A2 C), add model, Caseonly) was 0.74 and the “OR (synergy index), CARE” value (SNP rs9346951 (A1 A, A2 G), add model, Caseonly) was 1.56. The “OR (synergy index), CARE” value (SNP rs10787944 (A1 G, A2 A), dom model, Caseonly) was 1.63, the “OR (synergy index), CARE” value (SNP rs10945874 (A1 T, A2 C), add model, cohort) was 1.72 and the “OR (synergy index), CARE” value (SNP rs11178579 (A1 T, A2 G), add model, cohort) was 0.76. For the same compound, the “OR (synergy index), CARE” value (SNP rs13103899 (A1 G, A2 A), dom model, cohort) was 0.70, the “OR (synergy index), CARE” value (SNP rs13107334 (A1 G, A2 T), add model, cohort) was 0.69 and the “OR (synergy index), CARE” value (SNP rs13121569 (A1 G, A2 A), dom model, Caseonly) was 0.66. For the same compound, the “OR (synergy index), CARE” value (SNP rs17048681 (A1 G, A2 T), add model, cohort) was 1.26.
